In US20120202856A1, “SUBSTITUTED BENZIMDAZOLE DERIVATIVES USEFUL AS TRPM8 RECEPTOR MODULATORS” (priority 2011, published 2012):
Several values for one entry are separate records, joined by “and”; a condition that tells them apart may be missing. Equal values may be shown once. Where a name gives a salt, the structure may show the parent alone.

Biological target: T1, canine TRPM8 (Canis lupus familiaris, UniProt Q1A7N1)
T1 construct: expressed in transfected cells
Test: In Vitro Canine TRPM8 Functional Assay (intracellular Ca2+ fluorescence, icilin activation, HEK293 cells)
Format: cell-based
Details: 0.2 μM test compound; individually measured values; sodium salt, 0.2 µM
Description: The changes in fluorescent signal were monitored by a fluorescence plate reader, either a FLIPR™ (Molecular Devices) or FDSS (Hamamatsu). […] Cells were maintained in 5% CO2 at 37° C. At 24 hr prior to assay, cells were seeded in black wall, clear-base poly-D-lysine coated 384-well plates (BD Biosciences, NJ, USA) at a density of 5,000 cells per well in culture medium and grown overnight in 5% CO2 at 37° C. On assay day, growth media was removed, and cells were loaded with Calcium 3 Dye (Molecular Devices) for 35 min at 37° C., under 5% CO2 and then incubated for 25 min at room temperature and atmosphere. Subsequently, cells were tested for agonist-induced increases in intracellular Ca^2+ levels using FLIPR™ or FDSS. […] Maximal fluorescence intensity (FI) achieved upon addition of icilin was exported from the FLIPR™ or FDSS software and further analyzed using GraphPad Prism 3.02 (Graph Pad Software Inc., CA, U.S.A.). Basal FI was subtracted prior to normalizing data to percent of maximal response. Curves were generated using the average of quadruplicate wells for each data point using nonlinear regression of either sigmoidal dose response or sigmoidal dose response (variable slope). Finally, IC50 values were calculated with the best-fit curve determined by GraphPad Prism

T1 sequence (Q1A7N1 1-1104): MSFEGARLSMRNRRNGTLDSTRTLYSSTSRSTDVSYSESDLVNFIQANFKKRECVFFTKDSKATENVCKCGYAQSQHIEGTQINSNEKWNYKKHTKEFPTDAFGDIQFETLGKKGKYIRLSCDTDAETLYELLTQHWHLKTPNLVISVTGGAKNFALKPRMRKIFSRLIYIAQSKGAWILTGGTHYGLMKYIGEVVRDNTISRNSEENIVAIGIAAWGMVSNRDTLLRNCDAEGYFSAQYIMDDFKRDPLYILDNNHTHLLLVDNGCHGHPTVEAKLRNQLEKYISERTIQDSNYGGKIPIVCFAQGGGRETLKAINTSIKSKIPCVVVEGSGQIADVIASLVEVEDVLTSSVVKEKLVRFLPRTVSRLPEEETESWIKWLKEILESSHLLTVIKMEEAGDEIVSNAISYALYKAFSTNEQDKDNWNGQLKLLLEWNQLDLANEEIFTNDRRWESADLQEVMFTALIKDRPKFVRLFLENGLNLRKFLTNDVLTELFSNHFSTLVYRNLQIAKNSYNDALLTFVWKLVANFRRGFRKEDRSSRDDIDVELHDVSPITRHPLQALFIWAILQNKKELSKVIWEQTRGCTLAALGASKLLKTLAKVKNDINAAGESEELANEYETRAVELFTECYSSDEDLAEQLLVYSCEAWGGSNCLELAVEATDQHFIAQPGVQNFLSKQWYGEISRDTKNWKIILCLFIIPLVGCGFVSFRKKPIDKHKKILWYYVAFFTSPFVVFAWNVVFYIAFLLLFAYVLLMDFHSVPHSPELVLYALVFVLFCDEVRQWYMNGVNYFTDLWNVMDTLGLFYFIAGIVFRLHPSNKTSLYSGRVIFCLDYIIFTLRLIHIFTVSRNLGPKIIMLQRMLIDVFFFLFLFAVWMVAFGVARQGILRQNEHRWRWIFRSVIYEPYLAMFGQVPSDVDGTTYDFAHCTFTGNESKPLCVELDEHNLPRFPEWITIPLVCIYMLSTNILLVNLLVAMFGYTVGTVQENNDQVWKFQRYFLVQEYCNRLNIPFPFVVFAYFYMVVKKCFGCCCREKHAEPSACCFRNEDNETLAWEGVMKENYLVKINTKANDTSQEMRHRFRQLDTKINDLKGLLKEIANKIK

With `Cn1nc(C(C)(C)C)c(C#N)c1-c1nc2cc(-c3ccccc3F)cc(C(F)(F)F)c2[n-]1.[Na+]` [Compound 147] the “% Inh (%) @0.2 μM, in vitro TRP M8 Activity” value was 98%.

Same assay, conditions: HEK293, 0.2 μM test compound; individually measured values; read-out: % Inh (%) @0.2 μM, in vitro TRP M8 Activity

First: Cc1nc(C(C)(C)C)oc1-c1nc2cc(-c3ccccc3Cl)cc(Cl)c2[nH]1 [Compound 181, 2-(2-tert-Butyl-4-methyl-oxazol-5-yl)-7-chloro-5-(2-chloro-phenyl)-1H-benzimidazole hydrochloride]
Second: Cc1c(C(C)(C)C)nn(C)c1-c1nc2cc(-c3c(F)cccc3C(F)(F)F)cc(Cl)c2[nH]1 [Compound 137, 2-(5-tert-Butyl-2,4-dimethyl-2H-pyrazol-3-yl)-7-chloro-5-(2-fluoro-6-trifluoromethyl-phenyl)-1H-benzimidazole hydrochloride]
The inhibition at 0.2 µM of the first is lower: 15% for the first, 99% for the second.

`Cn1nc(C(C)(C)C)c(C#N)c1-c1nc2cc(-c3ccccc3F)cc(C(F)(F)F)c2[n-]1.[Na+]` [Compound 147, 3-tert-Butyl-5-[(5-(2-fluoro-phenyl)-7-trifluoromethyl-1H-benzimidazol-2-yl]-1-methyl-1H-pyrazole-4-carbonitrilesodium salt] gave an inhibition at 0.2 µM of 100%.

Same assay, conditions: HEK293 cells expressing canine TRPM8, icilin activation; individually measured values (batches/salt forms); read-out: IC50 (nM), in vitro TRP M8 Activity

First: Cn1nc(C2(C)CC2)cc1-c1nc2cc(-c3ccccc3OC(F)(F)F)ccc2[nH]1 [Compound 53, 2-[2-Methyl-5-(1-methylcyclopropyl)-2H-pyrazol-3-yl]-5-(2-trifluoromethoxyphenyl)-1H-benzimidazole sodium salt]
Second: Cn1nc(C(F)(F)F)cc1-c1nc2cc(-c3ccccc3C(F)(F)F)ccc2[nH]1 [Compound 40, 2-(5-Trifluoromethyl-2-methyl-2H-pyrazol-3-yl)-5-(2-trifluoromethylphenyl)-1H-benzimidazole sodium salt]
The IC50 of the first is 2-fold lower: 41.7 nM for the first, 81.5 nM for the second. The first is the more potent here.

`CC(C)(C)c1cc(-c2nc3cc(-c4c(F)cccc4OC(F)(F)F)ccc3[nH]2)on1` [Compound 103, 2-(3-tert-Butyl-isoxazol-5-yl)-5-(2-fluoro-6-trifluoromethoxy-phenyl)-1H-benzimidazole hydrochloride] and `CC(C)(C)c1cc(-c2nc3cc(-c4c(C(F)(F)F)cccc4C(F)(F)F)ccc3[nH]2)on1` [Compound 104, 5-(2,6-Bis-trifluoromethyl-phenyl)-2-(3-tert-butyl-isoxazol-5-yl)-1H-benzimidazole hydrochloride] are within 1.5-fold of each other in IC50: 4.5 nM for the first, 3.9 nM for the second.

First: CC(C)(C)c1nnc(-c2nc3cc(-c4ccccc4C(F)(F)F)cc(C(F)(F)F)c3[nH]2)o1 [Compound 190, 2-(5-tert-Butyl-[1,3,4]oxadiazol-2-yl)-7-trifluoromethyl-5-(2-trifluoromethyl-phenyl)-1H-benzimidazole sodium salt]
Second: CC(C)(C)c1cc(-c2nc3cc(-c4ccccc4C(F)(F)F)ccc3[nH]2)n(CCO)n1 [Compound 102, 2-{3-tert-Butyl-5-[5-(2-trifluoromethylphenyl)-1H-benzimidazol-2-yl]-pyrazol-1-yl}-ethanol hydrochloride]
The IC50 of the first is 1.8-fold lower: 30 nM for the first, 54.4 nM for the second. The first is the more potent here.

`COc1ccccc1-c1ccc2[nH]c(-c3cc(C(C)C)no3)nc2c1` [Compound 2, 2-(3-Isopropylisoxazol-5-yl)-5-(2-methoxyphenyl)-1H-benzimidazole sodium salt] and `Cn1nc(C(C)(C)C)cc1-c1nc2cc(-c3ccccc3C#N)ccc2[nH]1` [Compound 60, 2-[2-(5-tert-Butyl-2-methyl-2H-pyrazol-3-yl)-1H-benzimidazol-5-yl]-benzonitrile trifluoroacetic acid salt] are within 1.5-fold of each other in IC50: 16 nM for the first, 11.9 nM for the second.

`Cn1nc2c(c1-c1nc3cc(-c4ccccc4Cl)ccc3[nH]1)CCCC2(C)C` [Compound 32, 3-[5-(2-Chlorophenyl)-1H-benzimidazol-2-yl]-2,7,7-trimethyl-4,5,6,7-tetrahydro-2H-indazole sodium salt] showed an IC50 of 21 nM.

In the case of `Cn1nc(C(C)(C)C)c(C#N)c1-c1nc2cc(-c3c(F)cccc3F)cc(C(F)(F)F)c2[nH]1` [Compound 151, 3-tert-Butyl-5-[5-(2,6-difluoro-phenyl)-7-trifluoromethyl-1H-benzimidazol-2-yl]-1-methyl-1H-pyrazole-4-carbonitrile sodium salt], the IC50 is reported as 4.2 nM and 6 nM and 3.8 nM.
In the case of `Cc1c(C(C)(C)C)nn(C)c1-c1nc2cc(-c3c(F)cccc3C(F)(F)F)cc(Cl)c2[nH]1` [Compound 137, 2-(5-tert-Butyl-2,4-dimethyl-2H-pyrazol-3-yl)-7-chloro-5-(2-fluoro-6-trifluoromethyl-phenyl)-1H-benzimidazole hydrochloride], the IC50 is reported as 3 nM and 4.7 nM.
For `Cn1nc(C(C)(C)C)c(C#N)c1-c1nc2cc(-c3ccccc3F)cc(C(F)(F)F)c2[n-]1.[Na+]` [Compound 147, 3-tert-Butyl-5-[(5-(2-fluoro-phenyl)-7-trifluoromethyl-1H-benzimidazol-2-yl]-1-methyl-1H-pyrazole-4-carbonitrilesodium salt], the IC50 was 5.9 nM and 4.8 nM and 5.1 nM.
